This is an account of results in patent US7220756B2, “N-sulfonylheterocyclopyrrolyl-alkylamine compounds as 5-hydroxytryptamine-6 ligands” (Wyeth, priority 2003, dated 2007).

Usually Ki stands for a measure of affinity in units of concentration, obtained from inhibition or displacement.

For the test, the target named is T1, human cloned 5-HT6 receptors (Homo sapiens, UniProt P50406).
T1 construct: expressed in transfected cells; host or cells: HeLa cells
T1 sequence (P50406 whole entry): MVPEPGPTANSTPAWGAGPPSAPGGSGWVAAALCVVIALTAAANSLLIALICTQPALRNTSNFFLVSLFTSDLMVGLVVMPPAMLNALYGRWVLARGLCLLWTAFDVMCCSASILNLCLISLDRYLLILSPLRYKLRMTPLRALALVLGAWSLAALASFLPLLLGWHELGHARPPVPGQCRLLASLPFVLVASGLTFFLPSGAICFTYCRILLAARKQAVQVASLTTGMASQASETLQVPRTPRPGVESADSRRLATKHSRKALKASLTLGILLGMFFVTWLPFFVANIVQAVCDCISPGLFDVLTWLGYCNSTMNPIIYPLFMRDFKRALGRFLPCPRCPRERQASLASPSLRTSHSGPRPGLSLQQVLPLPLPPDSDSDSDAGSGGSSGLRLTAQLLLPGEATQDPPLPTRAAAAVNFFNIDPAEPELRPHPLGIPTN
Briefly: 5-HT6 binding affinity, [3H]-LSD displacement. The following applies: membranes of Hela cells expressing human cloned 5-HT6 receptors; [3H]-LSD 3.0 nM; 120 min, room temperature; read-out: 5-HT6 Binding Ki. The procedure:
The affinity of test compounds for the serotonin 5-HT6 receptor is evaluated in the following manner. Cultured Hela cells expressing human cloned 5-HT6 receptors are harvested and centrifuged at low speed (1,000×g) for 10.0 min to remove the culture media. The harvested cells are suspended in half volume of fresh physiological phosphate buffered saline solution and recentrifuged at the same speed. This operation is repeated. The collected cells are then homogenized in ten volumes of 50 mM Tris.HCl (pH 7.4) and 0.5 mM EDTA. The homogenate is centrifuged at 40,000×g for 30.0 min and the precipitate is collected. The obtained pellet is resuspended in 10 volumes of Tris.HCl buffer and recentrifuged at the same speed. The final pellet is suspended in a small volume of Tris.HCl buffer and the tissue protein content is determined in aliquots of 10–25 μl volumes. Bovine Serum Albumin is used as the standard in the protein determination according to the method described in Lowry et al., J. Biol. Chem., 193:265 (1951). The volume of the suspended cell membranes is adjusted to give a tissue protein concentration of 1.0 mg/ml of suspension. The prepared membrane suspension (10 times concentrated) is aliquoted in 1.0 ml volumes and stored at −70° C. until used in subsequent binding experiments.
The reaction is allowed to proceed in the dark for 120 min at room temperature, at which time, the bound ligand-receptor complex is filtered off on a 96 well unifilter with a Packard Filtermate® 196 Harvester. The bound complex caught on the filter disk is allowed to air dry and the radioactivity is measured in a Packard TopCount® equipped with six photomultiplier detectors, after the addition of 40.0 μl Microscint®−20 scintillant to each shallow well. The unifilter plate is heat-sealed and counted in a PackardTopCount® with a tritium efficiency of 31.0%.
Binding in the presence of varying concentrations of test compound is expressed as a percentage of specific binding in the absence of test compound. The results are plotted as log % bound versus log concentration of test compound. […] A linear regression line of data points is plotted, from which the IC50 value is determined and the Ki value is determined based upon the following equation: Ki=IC50/(1+L/KD) where L is the concentration of the radioactive ligand used and KD is the dissociation constant of the ligand for the receptor, both expressed in nM.
`CN(C)CCc1cn(S(=O)(=O)c2cccc(F)c2)c2sccc12` [Example 47, N,N-dimethyl-2-{[6-(3-fluorophenyl)sulfonyl]-6H-thieno[2,3-b]pyrrol-4-yl]-ethylamine]: the Ki came out at 2.1 ± 0.2 nM. Then `CN(C)CCc1cn(S(=O)(=O)c2cccs2)c2sccc12` [Example 56, N,N-dimethyl-2-{(6-thien-2-ylsulfonyl)-6H-thieno[2,3-b]pyrrol-4-yl]-ethyllamine], with 2.4 ± 0.2 nM.

For `CN(C)CCc1cn(S(=O)(=O)c2cccc3ccccc23)c2sccc12` [Example 58, N,N-dimethyl-2-{[6-(1-naphthyl)sulfonyl]-6H-thieno[2,3-b]pyrrol-4-yl}ethylamine], the Ki was found to be 3.6 ± 0.1 nM. As for `Cc1cccc(S(=O)(=O)n2cc(CCN(C)C)c3ccsc32)c1` [Example 59, N,N-dimethyl-2-{[6-(3-methylphenyl)sulfonyl]-6H-thieno[2,3-b]pyrrol-4-yl}ethylamine], the Ki was 1.6 nM. As for `Cc1nc(S(=O)(=O)n2cc(CCN(C)C)c3ccsc32)cn1C` [Example 60, N,N-dimethyl-2-{[6-(1,2-dimethyl-1H-imidazol-4-yl)sulfonyl]-6H-thieno[2,3-b]pyrrol-4-yl}ethylamine], the Ki turned out to be 50 ± 1 nM. On to `CN(C)CCc1cn(S(=O)(=O)c2cccc3cccnc23)c2sccc12` [Example 61, N,N-dimethyl-2-{[6-(8-quinolinyl)sulfonyl]-6H-thieno[2,3-b]pyrrol-4-yl}ethylamine], for which the Ki worked out at 4.7 ± 0.1 nM. Then `CN(C)CCc1cn(S(=O)(=O)c2ccccc2C(F)(F)F)c2sccc12` [Example 62, N,N-dimethyl-2-{{[6-(2-trifluoromethyl)phenyl]sulfonyl}-6H-thieno[2,3-b]pyrrol-4-yl}ethylamine], with 4.7 ± 0.1 nM; and `COc1ccc(S(=O)(=O)n2cc(CCN(C)C)c3ccsc32)cc1` [Example 63, N,N-dimethyl-2-{[6-(4-methoxyphenyl)sulfonyl]-6H-thieno[2,3-b]pyrrol-4-yl}ethyl-amine], with 3.7 ± 0.1 nM; and `NCCc1cn(S(=O)(=O)c2ccc3ccccc3c2)c2ccsc12` [Example 66], with 9.2 ± 1 nM.

`COc1cccc(S(=O)(=O)n2cc(CCN)c3sccc32)c1` [Example 67, 2-{[4-(3-methoxyphenyl)sulfonyl]-4H-thieno[3,2-b]pyrrol-6-yl}ethylamine]: the Ki is 2 ± 0.1 nM. With `Cc1c(S(=O)(=O)n2cc(CCN)c3sccc32)sc2ccc(Cl)cc12` [Example 68], the Ki was determined as 25 ± 1 nM. On to `CN(C)CCc1cn(S(=O)(=O)c2ccccc2)c2ccsc12` [Example 70], for which the inhibition constant (Ki) came to 1.2 ± 0.1 nM.

For the compound `CN(C)CCc1cn(S(=O)(=O)c2cccc(C(F)(F)F)c2)c2ccsc12` [Example 71], the Ki was found to be 3 ± 0.2 nM.

Turning to `CN(C)CCc1cn(S(=O)(=O)c2c(Cl)nc3sccn23)c2ccsc12` [Example 74], the Ki was determined as 0.2 nM. With `COc1cccc(S(=O)(=O)n2cc(CCN(C)C)c3sccc32)c1` [Example 76] the figure was 1.3 ± 0.1 nM. With `Cc1c(S(=O)(=O)n2cc(CCN(C)C)c3sccc32)sc2ccc(Cl)cc12` [Example 77] the figure was 24.3 ± 1.5 nM; with `CN(C)CCc1cn(S(=O)(=O)c2ccccc2F)c2ccsc12` [Example 78], 2.1 ± 0.1 nM. Turning to `CN(C)CCc1cn(S(=O)(=O)c2cccc(F)c2)c2ccsc12` [Example 79], the Ki was 0.9 nM. Consider “N,N-dimethyl-2-[6-(2-naphthylsufonyl)-6H-thieno[2,3-b]pyrrol-4-yl]ethylamine [Example 43]”, for which the Ki came out at 2.5 ± 0.2 nM. In the case of “N,N-dimethyl-2-{[6-(2,3-dichlorophenyl)sulfonyl]-6H-thieno[2,3-b]pyrrol-4-yl}ethyl-amine [Example 53]”, the Ki was determined as 3 ± 0.1 nM.

Consider “N,N-dimethyl-2-{[6-(2,6-dichloroimidazo[2,1-b]thiazol-5-yl)sulfonyl]-6H-thieno[2,3-b]pyrrol-4-yl}ethylamine [Example 51]”, for which the inhibition constant (Ki) was 6.8 ± 0.6 nM. As for “N,N-dimethyl-2-{[6-(2-chloroimidazo[1,2-a]pyridin-3-yl)sulfonyl]-6H-thieno[2,3-b]pyrrol-4-yl}ethylamine [Example 50]”, the inhibition constant (Ki) is 2.1 ± 0.1 nM.

As to “N,N-dimethyl-2-{[6-(2-chlorophenyl)sulfonyl]-6H-thieno[2,3-b]pyrrol-4-yl}ethylamine [Example 48]”, the Ki worked out at 5.5 ± 0.5 nM.

In the case of “N,N-dimethyl-2-{[6-(3-bromophenyl)sulfonyl]-6H-thieno[2,3-b]pyrrol-4-yl}-ethylamine [Example 54]”, the Ki stood at 1.7 ± 0.1 nM. Take “N,N-dimethyl-2-{[6-(3-chloro-2-methylphenyl)sulfonyl]-6H-thieno[2,3-b]pyrrol-4-yl}-ethylamine [Example 64]”: the Ki came out at 5.9 ± 1.4 nM. Regarding “N,N-dimethyl-2-{[6-(3-chlorophenyl)sulfonyl]-6H-thieno[2,3-b]pyrrol-4-yl}ethylamine [Example 40]”, the Ki is 1.6 ± 0.3 nM. “N,N-dimethyl-2-{[6-(4,5-dichlorothien-2-yl)sulfonyl]-6H-thieno[2,3-b]pyrrol-4-yl]-ethyl]-amine [Example 57]”: the Ki turned out to be 4.9 ± 0.3 nM.

Consider “N,N-dimethyl-2-{[6-(4-chlorophenyl)sulfonyl]-6H-thieno[2,3-b]pyrrol-4-yl}ethylamine [Example 52]”, for which the Ki stood at 2.6 ± 0.2 nM. As for “N,N-dimethyl-2-{[6-(5-bromothien-2-yl)sulfonyl]-6H-thieno[2,3-b]pyrrol-4-ylethyl}-amine [Example 55]”, the inhibitory constant (Ki) was 1.1 ± 0.1 nM.

With “N,N-dimethyl-2-{[6-(5-chlorothien-2-yl)sulfonyl]-6H-thieno[2,3-b]pyrrol-4-yl]-ethyl}-amine [Example 41]”, the Ki came out at 1.3 ± 0.1 nM. Take “N,N-dimethyl-2-{[6-(6-chloroimidazo[2,1-b][1,3]thiazol-5-yl)sulfonyl]-6H-thieno[2,3-b]pyrrol-4-yl}ethylamine [Example 42]”: the Ki came to 0.9 ± 0.1 nM. Then “N,N-dimethyl-2-{[6-(imidazo[2,1-b][1,3]thiazol-5-yl)sulfonyl]-6H-thieno[2,3-b]pyrrol-4-yl}-ethylamine [Example 49]”, with 1.1 ± 0.1 nM.
